# Entries after “also recorded” stand apart in the source; their conditions may differ.
# Assays:
# MEFs [1] = assay: Cell cycle arrest assay with staurosporine: 3D-bilateral structure development / cell mass contraction; assay type: cell-based, mouse
# Experimental: (§1) Cell Cycle Arrest Assays with Staurosporine. Cultures of MEFs were incubated in FM with Staurosporine (20 nM) during 7 days while controls were incubated in FM. At day 6, a pulse of BrdU was applied overnight. MEFs were fixed at day 7 and stained with a mouse monoclonal antibody IGgl anti-BrdU FITC-conjugated (BD PharMingen, 33284×). To assess the dose-response effect of staurosporine on MEFs, these were incubated with different concentrations of staurosporine (0, 2, 20 nM) during 14 days. Visual inspection of the cell mass contraction along these 14 days was performed.
# (§2) (A) MEFs were incubated with and without staurosporine (20 nM) during 7 days. Proliferation was studied by means of a BrdU pulse followed by immunostaining against BrdU. (B) MEFs were incubated, during 14 days, with different concentrations of staurosporine (0, 2, 20 nM) to further analyze the effect of proliferation in the contraction phenomenon.
# MEFs [2] = assay: BrdU pulse proliferation assay with staurosporine; assay type: cell-based, mouse; conditions: staurosporine 20 nM, 7 days, BrdU pulse at day 6
# Experimental: as §1, §2
# [3] = tested on: Mouse Embryonic Fibroblasts (MEFs); assay: Gel contraction and bilateral/embryoid-like structure development of MEFs in self-assembling peptide scaffold; assay type: cell-based; conditions: for Gel contraction: Table 4, 10 days
# Experimental: In other experiments with RAD16-I, MEF cells (<8th passage) were trypsinized from 75 cm2 culture flasks, suspended in sucrose 20% and mixed with the self-assembling peptide RAD16-I (BD, Puramatrix) 0.5% to obtain a final MEF concentration of 2·10^6 cells/ml and 0.25% of RAD16-I. This suspension was seeded into inserts (Millipore) and jellified by addition of FM. After jellification, FM was added on the hydrogel. Incubation was performed at 37° C. with 5% CO2 and medium was changed every 2 days.
# The shape presents bilateral symmetry (3D-bilateral) and resembles some aspects of a vertebrate embryo undergoing axis formation. Collagen I cultures presented a different morphology, basically consisting of a small spherical ball produced by equal contraction forces, without any distinctive shape or pattern.
# The percentage of self-assembling peptide used for these experiments was half of the amount we described above (0.25% vs. 0.5%). […] Thus, in this example, two different parameters that may affect the development of such embryoid-like structures were studied: self-assembling peptide scaffold stiffness and fetal bovine serum concentration. […] Gel contraction and the presence of embryoid-like structure development were analyzed. nt=condition not tested.
# [4] = tested on: EB-derived cells (mouse embryonic stem cell line R1 Oct4-GFP); assay: Alkaline phosphatase activity of EB-derived cells in 3D culture; assay type: cell-based; conditions: EB-dc 3D cultures
# Experimental: Fluorescence microscopy was used to monitor GFP expression during EB formation. The EB were harvested and allowed to settle in a tube. The medium was removed and EB were gently treated with trypsin-EDTA 1× (GIBCO). The resultant EB-derived cells were encapsulated into the peptide scaffold (3D cultures) at a final concentration of 2×10^6 cells/mL, as described above, and cultured in control medium (ES medium in the absence of LIF). 2D cultures, in regular culture plates, were also performed as controls. The EB-derived cells were plated into 12-well plate containing control medium (ES medium in the absence of LIF) at a concentration of 760,000 cells/mL (200,000 cells/cm^2). […]
# Alkaline phosphatase activity. Alkaline phosphatase enzyme activity (ALP) of 2D and 3D cultures was measured in triplicate cultures before and after the osteogenic differentiation. […] ALP enzyme activity was calculated after measuring the absorbance of the reaction product formed, p-nitrophenol, at 405 nm on a spectrophotometer. […] Total protein levels were determined using a protein detection kit (Bio-Rad) based on the method of Lowry in order to normalize total protein levels. […]
# [5] = tested on: Mouse Embryonic Fibroblasts (MEF); assay: Alkaline phosphatase activity of MEFs in 3D culture; assay type: cell-based
# Experimental: Osteogenic differentiation of Mouse Embryonic Fibroblasts (MEF). Mouse embryonic fibroblasts (MEFs) were purchased from ATCC(SCRC-1008). They were isolated from mouse embryos derived from C57BL/6 mothers at 14 days of gestation (E14). The MEFs were expanded prior to osteogenic induction in MEF culture medium of DMEM (high glucose) containing 10% FBS (fetal bovine serum, Hyclone), 4 mM L-glutamine (GIBCO), and 1% (v/v) penicillin-streptomycin (GIBCO). The differentiation experiments were carried out using cells between passages 3 and 5. The MEFs were encapsulated into the peptide scaffold (3D cultures) at a final concentration of 2×10^6 cells/mL, as described above (3D cultures). 2D cultures were also performed by culturing MEFs into 12-well regular culture plates. Both the 2D and 3D cultures were maintained in MEF culture medium for 2-4 days (FIG. 1B). Next, the MEF medium was changed by osteogenic medium (same as in mESC osteogenic induction section). Also, […] of 1-alpha,25-(OH)2 vitamin D3 (Sigma) was added to the osteogenic medium as previously described for mouse-derived NIH 3T3 fibroblasts. The cultures were maintained for different time periods (FIG. 1B, STAGE 3) in osteogenic medium at 37° C. in humidified air with 5% CO2. The medium was regularly exchanged with fresh osteogenic medium.
# Alkaline phosphatase activity. Alkaline phosphatase enzyme activity (ALP) of 2D and 3D cultures was measured in triplicate cultures before and after the osteogenic differentiation. The cultures were rinsed twice with […] (TBS, 50 mM Tris base, 0.15 M NaCl, pH 7.4) and then the cells were incubated with 5 mM p-nitrophenyl phosphate (p-nitrophenyl phosphate disodium salt tablets, Sigma) solution in glycine buffer (50 mM glycine, 1 mM MgCl2, pH 10.5) for 30 min at 37° C. ALP enzyme activity was calculated after measuring the absorbance of the reaction product formed, p-nitrophenol, at 405 nm on a spectrophotometer. Standards were prepared by consecutively diluting 10 mM p-nitrophenol (Sigma) solution in glycine buffer at concentrations ranging from 0.0001 mM to 0.06 mM. Total protein levels were determined using a protein detection kit (Bio-Rad) based on the method of Lowry in order to normalize total protein levels. The final APL activity was expressed in units/mg of protein (one unit will hydrolyze 1 micromoles of p-nitrophenyl phosphate per minute at pH 10.5).
"ALP activity ([5]; MEF 3D control cultures, after culture) [U/mg]","ALP activity ([5]; MEF 3D control cultures, initial) [U/mg]","ALP activity ([5]; MEF 3D osteogenic cultures, after osteogenic induction) [U/mg]","ALP activity ([5]; MEF 3D osteogenic cultures, initial) [U/mg]",Compound,"Effect on 3D-bilateral structure development at diluted concentrations (MEFs [1]; staurosporine 0, 2, 20 nM, 14 days)","Development of the 3D-bilateral structure (MEFs [1]; staurosporine 20 nM, 7 days, MEFs in RAD16-I)",Incorporation of BrdU (MEFs [2]),"Contraction ([3]; Table 3, 0.25% RAD, 2% FBS)","Contraction ([3]; Table 3, 0.25% RAD, 10% FBS)","Contraction ([3]; Table 3, 0.25% RAD, 15% FBS)","Structure formation ([3]; Table 3, 0.25% RAD, 15% FBS)","Contraction ([3]; Table 3, 0.5% RAD, 2% FBS)","Contraction ([3]; Table 3, 0.5% RAD, 10% FBS)","Contraction ([3]; Table 3, 0.5% RAD, 15% FBS)","Gel contraction ([3]; peptide gel 0.25%, FBS 2%)","Gel contraction ([3]; peptide gel 0.25%, FBS 15%)","Gel contraction ([3]; peptide gel 0.5%, FBS 15%)",ALP activity ([4]; control (no osteogenic induction)) [U/mg],ALP activity ([4]; osteogenic-induced) [U/mg]
–,–,–,–,CN[C@@H]1C[C@H]2O[C@@](C)([C@@H]1OC)n1c3ccccc3c3c4c(c5c6ccccc6n2c5c31)C(=O)NC4 [Staurosporine],dose-response inhibitory effect,clearly abrogated; also recorded: prevented,no incorporation,–,–,–,–,–,–,–,–,–,–,–,–
68.1,1.8,118.3,1.5,AcN-RADARADARADARADA-CONH2 [Peptide],–,–,–,No contraction,Low,High contraction;,bilateral structures,No contraction,Very low,Low,Low,High,Low,190.2,87
